Source: ChEMBL document CHEMBL6074711, “Design, Synthesis, and Activity Evaluation of C-23-Modified 5-O-Mycaminosyltylonolide Derivatives” (ACS Med Chem Lett, 2024)
In brackets after ≈: the same amount, converted by molar mass.

What was measured:
Staphylococcus aureus [1] = experiment: Antibacterial activity against Staphylococcus aureus ATCC25923 incubated for 16 to 20 hrs by broth microdilution method; type: functional; conditions: time 16-20 hrs
Escherichia coli [2] = experiment: Antibacterial activity against Escherichia coli ATCC25922 incubated for 16 to 20 hrs by broth microdilution method; type: functional; conditions: time 16-20 hrs
Enterococcus faecalis [3] = experiment: Antibacterial activity against Enterococcus faecalis ATCC29212 incubated for 16 to 20 hrs by broth microdilution method; type: functional; conditions: time 16-20 hrs
[4] = system: Stenotrophomonas maltophilia; experiment: Antibacterial activity against Stenotrophomonas maltophilia ATCC17808 incubated for 16 to 20 hrs by broth microdilution method; type: functional; conditions: time 16-20 hrs
Staphylococcus aureus [5] = experiment: Antibacterial activity against drug-resistant Staphylococcus aureus clinical isolate M20 incubated for 16 to 20 hrs by broth microdilution method; type: functional; conditions: time 16-20 hrs
Escherichia coli [6] = experiment: Antibacterial activity against drug-resistant Escherichia coli clinical isolate 1322 incubated for 16 to 20 hrs by broth microdilution method; type: functional; conditions: time 16-20 hrs
Escherichia coli [7] = experiment: Antibacterial activity against drug-resistant Escherichia coli clinical isolate 1333 incubated for 16 to 20 hrs by broth microdilution method; type: functional; conditions: time 16-20 hrs
Staphylococcus aureus [8] = experiment: Bactericidal activity against Staphylococcus aureus ATCC25923 incubated for 20 to 24 hrs; type: functional; conditions: time 20-24 hrs
Staphylococcus aureus [9] = experiment: Antibacterial activity against Staphylococcus aureus ATCC25923 incubated for 20 to 24 hrs; type: functional; conditions: time 20-24 hrs
Staphylococcus aureus [10] = experiment: Ratio of MBC to MIC for Staphylococcus aureus ATCC25923 incubated for 20 to 24 hrs; type: functional; conditions: time 20-24 hrs
Enterococcus faecalis [11] = experiment: Bactericidal activity against Enterococcus faecalis ATCC29212 incubated for 20 to 24 hrs; type: functional; conditions: time 20-24 hrs
Enterococcus faecalis [12] = experiment: Antibacterial activity against Enterococcus faecalis ATCC29212 incubated for 20 to 24 hrs; type: functional; conditions: time 20-24 hrs
Enterococcus faecalis [13] = experiment: Ratio of MBC to MIC for Enterococcus faecalis ATCC29212 incubated for 20 to 24 hrs; type: functional; conditions: time 20-24 hrs
Escherichia coli [14] = experiment: Bactericidal activity against Escherichia coli ATCC25922 incubated for 20 to 24 hrs; type: functional; conditions: time 20-24 hrs
Escherichia coli [15] = experiment: Antibacterial activity against Escherichia coli ATCC25922 incubated for 20 to 24 hrs; type: functional; conditions: time 20-24 hrs
Escherichia coli [16] = experiment: Ratio of MBC to MIC for Escherichia coli ATCC25922 incubated for 20 to 24 hrs; type: functional; conditions: time 20-24 hrs
[17] = system: Stenotrophomonas maltophilia; experiment: Bactericidal activity against Stenotrophomonas maltophilia ATCC17808 incubated for 20 to 24 hrs; type: functional; conditions: time 20-24 hrs
[18] = system: Stenotrophomonas maltophilia; experiment: Antibacterial activity against Stenotrophomonas maltophilia ATCC17808 incubated for 20 to 24 hrs; type: functional; conditions: time 20-24 hrs
[19] = system: Stenotrophomonas maltophilia; experiment: Ratio of MBC to MIC for Stenotrophomonas maltophilia ATCC17808 incubated for 20 to 24 hrs; type: functional; conditions: time 20-24 hrs
Escherichia coli [20] = experiment: Antibacterial activity against Escherichia coli ATCC25922 at pH 6.80; type: functional
Escherichia coli [21] = experiment: Antibacterial activity against Escherichia coli ATCC25922 at pH 7; type: functional
Escherichia coli [22] = experiment: Antibacterial activity against Escherichia coli ATCC25922 at pH 7.20; type: functional
Escherichia coli [23] = experiment: Antibacterial activity against Escherichia coli ATCC25922 at pH 7.40; type: functional
Escherichia coli [24] = experiment: Antibacterial activity against Escherichia coli ATCC25922 at pH 7.60; type: functional
Escherichia coli [25] = experiment: Antibacterial activity against Escherichia coli ATCC25922 at pH 7.80; type: functional
Staphylococcus aureus [26] = experiment: Antibacterial activity against Staphylococcus aureus ATCC25923 at pH 6.80; type: functional
Staphylococcus aureus [27] = experiment: Antibacterial activity against Staphylococcus aureus ATCC25923 at pH 7; type: functional
Staphylococcus aureus [28] = experiment: Antibacterial activity against Staphylococcus aureus ATCC25923 at pH 7.20; type: functional
Staphylococcus aureus [29] = experiment: Antibacterial activity against Staphylococcus aureus ATCC25923 at pH 7.40; type: functional
Staphylococcus aureus [30] = experiment: Antibacterial activity against Staphylococcus aureus ATCC25923 at pH 7.60; type: functional
Staphylococcus aureus [31] = experiment: Antibacterial activity against Staphylococcus aureus ATCC25923 at pH 7.80; type: functional
Escherichia coli [32] = experiment: Antibacterial activity against Escherichia coli ATCC25922 under 10^4 CFU/ml of bacterial inoculum culture by absorbance based assay; type: functional
Escherichia coli [33] = experiment: Antibacterial activity against Escherichia coli ATCC25922 under 10^5 CFU/ml of bacterial inoculum culture by absorbance based assay; type: functional
Escherichia coli [34] = experiment: Antibacterial activity against Escherichia coli ATCC25922 under 10^6 CFU/ml of bacterial inoculum culture by absorbance based assay; type: functional
Escherichia coli [35] = experiment: Antibacterial activity against Escherichia coli ATCC25922 under 10^7 CFU/ml of bacterial inoculum culture by absorbance based assay; type: functional
Staphylococcus aureus [36] = experiment: Antibacterial activity against Staphylococcus aureus ATCC25923 under 10^4 CFU/ml of bacterial inoculum culture by absorbance based assay; type: functional
Staphylococcus aureus [37] = experiment: Antibacterial activity against Staphylococcus aureus ATCC25923 under 10^5 CFU/ml of bacterial inoculum culture by absorbance based assay; type: functional
Staphylococcus aureus [38] = experiment: Antibacterial activity against Staphylococcus aureus ATCC25923 under 10^6 CFU/ml of bacterial inoculum culture by absorbance based assay; type: functional
Staphylococcus aureus [39] = experiment: Antibacterial activity against Staphylococcus aureus ATCC25923 under 10^7 CFU/ml of bacterial inoculum culture by absorbance based assay; type: functional
Staphylococcus aureus [40] = experiment: Bactericidal activity against Staphylococcus aureus ATCC25923 at MIC incubated for 10 to 12 hrs by time-kill assay relative to control; type: functional; conditions: time 10-12 hrs
Escherichia coli [41] = experiment: Bactericidal activity against Escherichia coli ATCC25922 at MIC incubated for 5 hrs by time-kill assay relative to control; type: functional
Staphylococcus aureus [42] = experiment: Induction of resistance development in Staphylococcus aureus ATCC25923 at 0.5 times MIC treated daily with continuous passaging measured for 20 passages by absorbance based assay; type: functional, organism-based; conditions: time 20.0 day
Staphylococcus aureus [43] = experiment: Induction of resistance development in Staphylococcus aureus ATCC25923 treated daily with continuous passaging measured after 7 passages by absorbance based assay; type: functional; conditions: ATCC25923, 168 h, time 7 day
Staphylococcus aureus [44] = experiment: Induction of resistance development in Staphylococcus aureus ATCC25923 treated daily with continuous passaging measured after 13 passages by absorbance based assay; type: functional; conditions: ATCC25923, 312 h, time 13 day
Escherichia coli [45] = experiment: Induction of resistance development in Escherichia coli ATCC25922 treated daily with continuous passaging measured for 20 passages by absorbance based assay; type: functional, organism-based; conditions: time 20.0 day
Escherichia coli [46] = experiment: Induction of resistance development in Escherichia coli ATCC25922 treated daily with continuous passaging measured after 8 passages by absorbance based assay; type: functional; conditions: ATCC25922, 192 h, time 8 day
Escherichia coli [47] = experiment: Induction of resistance development in Escherichia coli ATCC25922 treated daily with continuous passaging measured after 12 passages by absorbance based assay; type: functional; conditions: ATCC25922, 288 h, time 12 day
Escherichia coli [48] = experiment: Induction of resistance development in Escherichia coli ATCC25922 treated daily with continuous passaging measured after 19 passages by absorbance based assay; type: functional; conditions: ATCC25922, 456 h, time 19 day
[49] = Cytotoxicity against mouse HT-22 cells incubated for 72 hrs by MTT assay; type: toxicity, cell-based
[50] = Selectivity index, ratio of IC50 for mouse HT-22 cells to MIC for methicillin-resistant Staphylococcus aureus; type: toxicity, cell-based
[51] = Toxicity in Kunming mouse assessed as histopathological changes in heart at 80 mg/kg/day, IG measured for 1 week; type: organism-based; conditions: in vivo, po, 168 h, time 1 weeks
[52] = Toxicity in Kunming mouse assessed as histopathological changes in liver at 80 mg/kg/day, IG measured for 1 week; type: organism-based; conditions: in vivo, po, 168 h, time 1 weeks
[53] = Toxicity in Kunming mouse assessed as histopathological changes in spleen at 80 mg/kg/day, IG measured for 1 week; type: organism-based; conditions: in vivo, po, 168 h, time 1 weeks
[54] = Toxicity in Kunming mouse assessed as histopathological changes in lung at 80 mg/kg/day, IG measured for 1 week; type: organism-based; conditions: in vivo, po, 168 h, time 1 weeks
[55] = Toxicity in Kunming mouse assessed as histopathological changes in kidney at 80 mg/kg/day, IG measured for 1 week; type: organism-based; conditions: in vivo, po, 168 h, time 1 weeks

CC[C@H]1OC(=O)C[C@@H](O)[C@H](C)[C@@H](O[C@@H]2O[C@H](C)[C@@H](O)[C@H](N(C)C)[C@H]2O)[C@@H](CCN(C)Cc2cn(-c3cnc4ccccc4c3)nn2)C[C@@H](C)C(=O)/C=C/C(C)=C/[C@@H]1CNCc1cccc(C)c1
MIC (Staphylococcus aureus [1]): 0.5 µg/mL (≈ 0.541 µM)
MIC (Escherichia coli [2]): 0.5 µg/mL (≈ 0.541 µM)
MIC (Enterococcus faecalis [3]): 1 µg/mL (≈ 1.08 µM)
MIC [4]: 2 µg/mL (≈ 2.16 µM)
MIC (Staphylococcus aureus [5]): 0.5 µg/mL (≈ 0.541 µM)
MIC (Escherichia coli [6]): 0.5 µg/mL (≈ 0.541 µM)
MIC (Escherichia coli [7]): 1 µg/mL (≈ 1.08 µM)
MBC (Staphylococcus aureus [8]): 2 µg/mL (≈ 2.16 µM)
MIC (Staphylococcus aureus [9]): 0.5 µg/mL (≈ 0.541 µM)
Ratio (Staphylococcus aureus [10]): 2
MBC (Enterococcus faecalis [11]): 8 µg/mL (≈ 8.66 µM)
MIC (Enterococcus faecalis [12]): 1 µg/mL (≈ 1.08 µM)
Ratio (Enterococcus faecalis [13]): 4
MBC (Escherichia coli [14]): 4 µg/mL (≈ 4.33 µM)
MIC (Escherichia coli [15]): 1 µg/mL (≈ 1.08 µM)
Ratio (Escherichia coli [16]): 4
MBC [17]: 8 µg/mL (≈ 8.66 µM)
MIC [18]: 1 µg/mL (≈ 1.08 µM)
Ratio [19]: 8
MIC (Escherichia coli [20]): 0.5 µg/mL (≈ 0.541 µM)
MIC (Escherichia coli [21]): 0.5 µg/mL (≈ 0.541 µM)
MIC (Escherichia coli [22]): 0.5 µg/mL (≈ 0.541 µM)
MIC (Escherichia coli [23]): 0.25 µg/mL (≈ 0.271 µM)
MIC (Escherichia coli [24]): 0.125 µg/mL (≈ 0.135 µM)
MIC (Escherichia coli [25]): 0.125 µg/mL (≈ 0.135 µM)
MIC (Staphylococcus aureus [26]): 1 µg/mL (≈ 1.08 µM)
MIC (Staphylococcus aureus [27]): 0.5 µg/mL (≈ 0.541 µM)
MIC (Staphylococcus aureus [28]): 0.5 µg/mL (≈ 0.541 µM)
MIC (Staphylococcus aureus [29]): 0.5 µg/mL (≈ 0.541 µM)
MIC (Staphylococcus aureus [30]): 0.25 µg/mL (≈ 0.271 µM)
MIC (Staphylococcus aureus [31]): 0.125 µg/mL (≈ 0.135 µM)
MIC (Escherichia coli [32]): 0.125 µg/mL (≈ 0.135 µM)
MIC (Escherichia coli [33]): 0.25 µg/mL (≈ 0.271 µM)
MIC (Escherichia coli [34]): 0.5 µg/mL (≈ 0.541 µM)
MIC (Escherichia coli [35]): 0.5 µg/mL (≈ 0.541 µM)
MIC (Staphylococcus aureus [36]): 0.125 µg/mL (≈ 0.135 µM)
MIC (Staphylococcus aureus [37]): 0.25 µg/mL (≈ 0.271 µM)
MIC (Staphylococcus aureus [38]): 0.25 µg/mL (≈ 0.271 µM)
MIC (Staphylococcus aureus [39]): 0.5 µg/mL (≈ 0.541 µM)
Activity (Staphylococcus aureus [40]): 100%
Activity (Escherichia coli [41]): 100%
Activity (Staphylococcus aureus [42]): Not active; Compound Induced Resistance Less Rapidly Than That Of Control Drug Linezolid
MIC (Staphylococcus aureus [43]): 1 µg/mL (≈ 1.08 µM)
MIC (Staphylococcus aureus [44]): 2 µg/mL (≈ 2.16 µM)
Activity (Escherichia coli [45]): Not active; Compound Induced Resistance More Slowly Than Control Drug Florfenicol
MIC (Escherichia coli [46]): 1 µg/mL (≈ 1.08 µM)
MIC (Escherichia coli [47]): 2 µg/mL (≈ 2.16 µM)
MIC (Escherichia coli [48]): 4 µg/mL (≈ 4.33 µM)
IC50 at 72 h [49]: 130 µg/mL (≈ 141 µM)
selectivity ratio [50]: 130
Activity [51]: Non-toxic
Activity [52]: Non-toxic
Activity [53]: Non-toxic
Activity [54]: Non-toxic
Activity [55]: Non-toxic
